Among the data in US12421254B2, “KRAS modulators and uses thereof” (Quanta Therapeutics, Inc., priority 2023, dated 2025) are IC50 values, retold here.

Experiment [1] has as its target GST-tagged KRAS-G12D (2-169) (Homo sapiens, UniProt P01116, G12D). Nature of the experiment: Nucleotide exchange assay (NEA), SOS-mediated, HTRF, KRAS G12D. It is filed as biochemical. Conditions: IC50 extracted at 30 min, 20 nM SOScat. Summed up: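 Compound preincubated 1 h at RT with 0.25 nM GST-KRAS-G12D (2-169) and anti-GST Tb donor, then 20 nM SOS1cat (564-1049) and 150 nM GTP-DY-647P1 added; pH 7.3 HEPES buffer with MgCl2 and DTT. HTRF monitored at RT; % inhibition versus DMSO and no-SOS blank, 4-parameter IC50 taken at 30 min.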
On the technique in general: Time-resolved FRET reads energy transfer from a long-lived donor to a nearby acceptor.

For experiment [2], the target named is GST-tagged KRAS-G12V (2-169) (Homo sapiens, UniProt P01116, G12V). As to the kind of experiment: Nucleotide exchange assay (NEA), SOS-mediated, HTRF, KRAS G12V. Format: biochemical. Conditions: Table 4; IC50 extracted at 90 min; 80 nM SOS. In a few lines: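 GST-KRAS-G12V (2-169), 0.25 nM, pre-incubated 1 h at RT with compound, then SOS1cat (564-1049) 80 nM and GTP-DY-647P1 150 nM added in HEPES pH 7.3 buffer with MgCl2 and DTT. HTRF via anti-GST Tb cryptate read over 90 min; IC50 from 4-parameter fit at 90 min, blanked to no-SOS reactions.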
Sequence of GST-tagged KRAS-G12V (2-169) (P01116 2-169 isoform P01116-2 G12V): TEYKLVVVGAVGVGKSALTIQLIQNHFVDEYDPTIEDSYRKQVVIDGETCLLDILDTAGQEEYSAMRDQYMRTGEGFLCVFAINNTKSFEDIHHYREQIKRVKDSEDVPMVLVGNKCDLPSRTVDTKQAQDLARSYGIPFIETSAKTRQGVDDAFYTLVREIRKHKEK

Setting [3] is: Table 2, read-out: NEA-G12D (uM) IC50.
Setting [4] is: Table 4, read-out: NEA G12D IC50.

Molecules are shown by their SMILES. Where two headings read alike, the source gives them in different places. A value given as a limit tells only on which side of the number the result lay.

Sequence of GST-tagged KRAS-G12D (2-169) (P01116 2-169 isoform P01116-2 G12D): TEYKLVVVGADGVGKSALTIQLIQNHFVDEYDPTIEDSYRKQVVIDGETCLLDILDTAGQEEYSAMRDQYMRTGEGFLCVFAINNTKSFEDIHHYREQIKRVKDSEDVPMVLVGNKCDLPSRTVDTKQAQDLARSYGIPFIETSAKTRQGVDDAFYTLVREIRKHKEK

For the compound `CN(CC1(C#N)CC1)c1nc(OC[C@@]23CCCN2C[C@H](F)C3)nc(N2CCC3(CCc4sc(N)c(C#N)c43)C2)n1` (stereo partly drawn) [Compound 14, 2-amino-1′-[4-[(1-cyanocyclopropyl)methyl-methyl-amino]-6-[[(2R,8S)-2-fluoro-1,2,3,5,6,7-hexahydropyrrolizin-8-yl]methoxy]-1,3,5-triazin-2-yl]spiro[5,6-dihydrocyclopenta[b]thiophene-4,3′-pyrrolidine]-3-carbonitrile], the IC50 in experiment [1] (setting [3]) was 1 to 20 µM; in experiment [1] (setting [4]), 1 to 20 µM; in experiment [2], 1000 to 20000 nM.
Consider `C[C@@]1(O)CCCN(c2nc(OC[C@@]34CCCN3C[C@H](F)C4)nc(N3CCC4(CCc5sc(N)c(C#N)c54)C3)n2)C1` (stereo partly drawn) [Compound 11, 2-amino-1′-[4-[[(2R,8S)-2-fluoro-1,2,3,5,6,7-hexahydropyrrolizin-8-yl]methoxy]-6-[(3R)-3-hydroxy-3-methyl-1-piperidyl]-1,3,5-triazin-2-yl]spiro[5,6-dihydrocyclopenta[b]thiophene-4,3′-pyrrolidine]-3-carbonitrile], for which the IC50 in experiment [1] (setting [3]) was 0.1 to 1 µM; in experiment [1] (setting [4]), 0.1 to 1 µM; in experiment [2] it was 100 to 1000 nM.
In the case of `N#Cc1c(N)sc2c1C1(CN(c3nc(OC[C@@]45CCCN4C[C@H](F)C5)nc(N4C5CSCC4C5)n3)C1)SC2` [Compound 269, 2-amino-1′-[4-[[(2R,8S)-2-fluoro-1,2,3,5,6,7-hexahydropyrrolizin-8-yl]methoxy]-6-(3-thia-6-azabicyclo[3.1.1]heptan-6-yl)-1,3,5-triazin-2-yl]spiro[6H-thieno[3,4-b]thiophene-4,3′-azetidine]-3-carbonitrile], the IC50 in experiment [1] (setting [4]) is 0.1 to 1 µM; in experiment [2], 10 to 100 nM.
In the case of `CC(c1n[nH]cc1N)N(C)c1nc(OC[C@@]23CCCN2C[C@H](F)C3)nc(N2CC3(C2)SCc2sc(N)c(C#N)c23)n1` (stereo partly drawn) [Compound 192, 2-amino-1′-[4-[1-(4-amino-1H-pyrazol-3-yl)ethyl-methyl-amino]-6-[[(2R,8S)-2-fluoro-1,2,3,5,6,7-hexahydropyrrolizin-8-yl]methoxy]-1,3,5-triazin-2-yl]spiro[6H-thieno[2,3-c]thiophene-4,3′-azetidine]-3-carbonitrile], the IC50 in experiment [1] (setting [4]) is 0.1 to 1 µM; in experiment [2] it was 10 to 100 nM.
Regarding `CN(Cc1c(O)ccnc1N)c1nc(OC[C@@]23CCCN2C[C@H](F)C3)nc(N2CC3(C2)SCc2sc(N)c(C#N)c23)n1` [Compound 182, 2-amino-1′-[4-[(2-amino-4-hydroxy-3-pyridyl)methyl-methyl-amino]-6-[[(2R,8S)-2-fluoro-1,2,3,5,6,7-hexahydropyrrolizin-8-yl]methoxy]-1,3,5-triazin-2-yl]spiro[6H-thieno[2,3-c]thiophene-4,3′-azetidine]-3-carbonitrile], the IC50 lay in the range of 0.01 to 0.1 µM in experiment [1] (setting [4]) and 10 to 100 nM in experiment [2].
For `CC(Nc1nc(OC[C@@]23CCCN2C[C@H](F)C3)nc(N2CC3(CCc4sc(N)c(C#N)c43)C2)n1)c1cccnc1N` (stereo partly drawn) [Compound 88, 2-amino-1′-[4-[1-(2-amino-3-pyridyl)ethylamino]-6-[[(2R,8S)-2-fluoro-1,2,3,5,6,7-hexahydropyrrolizin-8-yl]methoxy]-1,3,5-triazin-2-yl]spiro[5,6-dihydrocyclopenta[b]thiophene-4,3′-azetidine]-3-carbonitrile], the 50% inhibitory concentration (IC50) in experiment [1] (setting [4]) was 0.1 to 1 µM; in experiment [2], under 10 nM.
Take `CC(=O)CC(=O)N1[C@@H]2CC[C@H]1CN(c1nc(OC[C@@]34CCCN3C[C@H](F)C4)nc(N3CC4(C3)SCc3sc(N)c(C#N)c34)n1)C2` [Compound 145, 2-amino-1′-[4-[[(2R,8S)-2-fluoro-1,2,3,5,6,7-hexahydropyrrolizin-8-yl]methoxy]-6-[(1R,5S)-8-(3-oxobutanoyl)-3,8-diazabicyclo[3.2.1]octan-3-yl]-1,3,5-triazin-2-yl]spiro[6H-thieno[3,4-b]thiophene-4,3′-azetidine]-3-carbonitrile]: the figures for the IC50 in experiment [1] (setting [4]) and in experiment [2] were 1 to 20 µM and 100 to 1000 nM, respectively.
In the case of `CCN(c1nc(OC[C@@]23CCCN2C[C@H](F)C3)nc(N2CC3(C2)c2c(sc(N)c2C#N)C2CC23)n1)[C@H](C)c1cccnc1N` (stereo partly drawn) [Compound 212, 8-amino-1′-[4-[[(1R)-1-(2-amino-3-pyridyl)ethyl]-ethyl-amino]-6-[[(2R,8S)-2-fluoro-1,2,3,5,6,7-hexahydropyrrolizin-8-yl]methoxy]-1,3,5-triazin-2-yl]spiro[9-thiatricyclo[4.3.0.02,4]nona-1(6),7-diene-5,3′-azetidine]-7-carbonitrile], the IC50 in experiment [1] (setting [4]) is under 0.01 µM; in experiment [2], under 10 nM.
Turning to `N#Cc1c(N)sc2c1C1(CC2)CN(c2nc(N[C@@H]3COC[C@@H]3O)nc(OC[C@@]34CCCN3C[C@H](F)C4)n2)C1` (racemic) [Compound 103, 2-amino-1′-[4-[[(2R,8S)-2-fluoro-1,2,3,5,6,7-hexahydropyrrolizin-8-yl]methoxy]-6-[[rac-(3R,4R)-4-hydroxytetrahydrofuran-3-yl]amino]-1,3,5-triazin-2-yl]spiro[5,6-dihydrocyclopenta[b]thiophene-4,3′-azetidine]-3-carbonitrile], the IC50 in experiment [1] (setting [4]) was 1 to 20 µM; in experiment [2], 100 to 1000 nM.
On to `N#Cc1c(N)sc2c1C1(CN(c3nc(OC[C@@]45CCCN4C[C@H](F)C5)nc(N4CC5CC(=O)CC(C4)N5)n3)C1)SC2` [Compound 277, 2-amino-1′-[4-[[(2R,8S)-2-fluoro-1,2,3,5,6,7-hexahydropyrrolizin-8-yl]methoxy]-6-(7-oxo-3,9-diazabicyclo[3.3.1]nonan-3-yl)-1,3,5-triazin-2-yl]spiro[6H-thieno[3,4-b]thiophene-4,3′-azetidine]-3-carbonitrile], for which the IC50 in experiment [1] (setting [4]) is 0.01 to 0.1 µM; in experiment [2], under 10 nM.
In the case of `CN(Cc1ccn[nH]1)c1nc(OC[C@@]23CCCN2C[C@H](F)C3)nc(N2CC3(CCc4sc(N)c(C#N)c43)C2)n1` (racemic) [Compound 105, 2-amino-1′-[4-[methyl(1H-pyrazol-5-ylmethyl)amino]-6-[[rac-(2R,8S)-2-fluoro-1,2,3,5,6,7-hexahydropyrrolizin-8-yl]methoxy]-1,3,5-triazin-2-yl]spiro[5,6-dihydrocyclopenta[b]thiophene-4,3′-azetidine]-3-carbonitrile], the IC50 in experiment [1] (setting [4]) lay in the range of 1 to 20 µM; in experiment [2], 100 to 1000 nM.
For `N#Cc1c(N)sc2c1C1(CN(c3nc(OC[C@@]45CCCN4C[C@H](F)C5)nc(N(CC4(O)CC4)C4(C#N)CC4)n3)C1)SC2` [Compound 263, 2-amino-1′-[4-[(1-cyanocyclopropyl)-[(1-hydroxycyclopropyl)methyl]amino]-6-[[(2R,8S)-2-fluoro-1,2,3,5,6,7-hexahydropyrrolizin-8-yl]methoxy]-1,3,5-triazin-2-yl]spiro[6H-thieno[3,4-b]thiophene-4,3′-azetidine]-3-carbonitrile], the values for the IC50 in experiment [1] (setting [4]) and in experiment [2] were 0.01 to 0.1 µM and 10 to 100 nM, respectively.
In the case of `N#Cc1c(N)sc2c1C1(CC2)CN(c2nc(OC[C@@]34CCCN3C[C@H](F)C4)nc(O[C@@H]3COC[C@@H]3O)n2)C1` (racemic) [Compound 28, 2-amino-1′-[4-[[(2R,8S)-2-fluoro-1,2,3,5,6,7-hexahydropyrrolizin-8-yl]methoxy]-6-[rac-(3R,4S)-4-hydroxytetrahydrofuran-3-yl]oxy-1,3,5-triazin-2-yl]spiro[5,6-dihydrocyclopenta[b]thiophene-4,3′-azetidine]-3-carbonitrile], the IC50 in experiment [1] (setting [4]) was 1 to 20 µM; in experiment [2], 100 to 1000 nM.
On to `N#Cc1c(N)sc2c1C1(CN(c3nc(OC[C@@]45CCCN4C[C@H](F)C5)nc(N4C5CCC4COC5)n3)C1)SC2` (racemic) [Compound 274, 2-amino-1′-[4-(3-oxa-8-azabicyclo[3.2.1]octan-8-yl)-6-[[rac-(2R,8S)-2-fluoro-1,2,3,5,6,7-hexahydropyrrolizin-8-yl]methoxy]-1,3,5-triazin-2-yl]spiro[6H-thieno[3,4-b]thiophene-4,3′-azetidine]-3-carbonitrile], for which the IC50 in experiment [1] (setting [4]) is 0.1 to 1 µM; in experiment [2], 10 to 100 nM.
Turning to `N#Cc1c(N)sc2c1C1(CC2)CN(c2nc(OCC3(O)CC3)nc(OC[C@@]34CCCN3C[C@H](F)C4)n2)C1` [Compound 76, 2-amino-1′-[4-[[(2R,8S)-2-fluoro-1,2,3,5,6,7-hexahydropyrrolizin-8-yl]methoxy]-6-[(1-hydroxycyclopropyl)methoxy]-1,3,5-triazin-2-yl]spiro[5,6-dihydrocyclopenta[b]thiophene-4,3′-azetidine]-3-carbonitrile], the results for the IC50 in experiment [1] (setting [4]) and in experiment [2] were 1 to 20 µM and 100 to 1000 nM, respectively.
Consider `CC(c1cccnc1N)N(CCO)c1nc(OC[C@@]23CCCN2C[C@H](F)C3)nc(N2CC3(CCc4sc(N)c(C#N)c43)C2)n1` (stereo partly drawn) [Compound 110, 2-amino-1′-[4-[1-(2-amino-3-pyridyl)ethyl-(2-hydroxyethyl)amino]-6-[[(2R,8S)-2-fluoro-1,2,3,5,6,7-hexahydropyrrolizin-8-yl]methoxy]-1,3,5-triazin-2-yl]spiro[5,6-dihydrocyclopenta[b]thiophene-4,3′-azetidine]-3-carbonitrile], for which the IC50 in experiment [1] (setting [4]) is under 0.01 µM; in experiment [2] it was under 10 nM.
Take `C[C@H](c1cccnc1N)N(C)c1nc(OCC2(N(C)C)CC2)nc(N2CC3(C2)SCc2sc(N)c(C#N)c23)n1` [Compound 181, 2-amino-1′-[4-[[(1R)-1-(2-amino-3-pyridyl)ethyl]-methyl-amino]-6-[[1-(dimethylamino)cyclopropyl]methoxy]-1,3,5-triazin-2-yl]spiro[6H-thieno[2,3-c]thiophene-4,3′-azetidine]-3-carbonitrile]: the IC50 in experiment [1] (setting [4]) lay in the range of 0.1 to 1 µM; in experiment [2] it was 10 to 100 nM.

The term IC50 denotes the concentration at which inhibition is half-maximal.
